Assay results: US20260216345A1, “M6PR BINDING COMPOUNDS AND CONJUGATES” (Lycia Therapeutics, Inc., priority 2023, published 2026)
Entries after “also recorded” stand apart in the source; their conditions may differ.

Columns and labels:
CI-M6PR [1] = molecular target: T1, CI-M6PR (Homo sapiens, UniProt P11717); assay: Human CI-M6PR binding assay (ELISA); set-up: purchased R&D 6418-GR-050; conditions: for binding affinity to M6PR, rank among the conjugates tested: matuzumab conjugates (FIGS. 7A-7F), I-7 at d8 (DAR 8), I-11 at d4 (DAR 4)
Description: Nunc black solid bottom MaxiSorp plates were allowed to incubate overnight at 4° C. coated with 1 μg/mL of recombinant human CI-M6PR protein (R&D, 6418-GR-050) in 50 μL PBS. The next day, coating was decanted and plates were washed 3× with PBS. Wells were blocked with 350 μL of 3% BSA-PBS for 1 hour at room temperature. […] 50 μL of diluted conjugates were added to the plate and allowed to incubate at room temperature for 2 hours. After incubation, solutions in plate were decanted and washed with 350 μL of 0.05% PBS-Tween20 three times, drying the plate each wash on a clean paper towel. 50 μL of peroxidase AffiniPure Mouse Anti-Human IgG (Jackson Immuno, 209-035-088) diluted in 3% BSA-PBS to […] was added to the plate and allowed to incubate for 1 hour at room temperature in the dark. After incubation, solutions in plate were decanted and washed with 350 μL of 0.05% PBS-Tween20 3 times, drying the plate each wash on a clean paper towel. […] 50 μL of QuantaBlu solution was added to wells and allowed to incubate for 5-10 minutes at room temperature. After incubation, plates were read on a Perkin Elmer EnVision using photometric 340 and Umbelliferone 460 filter sets for excitation and emission, respectively. Data analysis and non-linear curve-fitting was performed using GraphPad Prism.
Target sequence in this assay (P11717 41-1365 limits assumed): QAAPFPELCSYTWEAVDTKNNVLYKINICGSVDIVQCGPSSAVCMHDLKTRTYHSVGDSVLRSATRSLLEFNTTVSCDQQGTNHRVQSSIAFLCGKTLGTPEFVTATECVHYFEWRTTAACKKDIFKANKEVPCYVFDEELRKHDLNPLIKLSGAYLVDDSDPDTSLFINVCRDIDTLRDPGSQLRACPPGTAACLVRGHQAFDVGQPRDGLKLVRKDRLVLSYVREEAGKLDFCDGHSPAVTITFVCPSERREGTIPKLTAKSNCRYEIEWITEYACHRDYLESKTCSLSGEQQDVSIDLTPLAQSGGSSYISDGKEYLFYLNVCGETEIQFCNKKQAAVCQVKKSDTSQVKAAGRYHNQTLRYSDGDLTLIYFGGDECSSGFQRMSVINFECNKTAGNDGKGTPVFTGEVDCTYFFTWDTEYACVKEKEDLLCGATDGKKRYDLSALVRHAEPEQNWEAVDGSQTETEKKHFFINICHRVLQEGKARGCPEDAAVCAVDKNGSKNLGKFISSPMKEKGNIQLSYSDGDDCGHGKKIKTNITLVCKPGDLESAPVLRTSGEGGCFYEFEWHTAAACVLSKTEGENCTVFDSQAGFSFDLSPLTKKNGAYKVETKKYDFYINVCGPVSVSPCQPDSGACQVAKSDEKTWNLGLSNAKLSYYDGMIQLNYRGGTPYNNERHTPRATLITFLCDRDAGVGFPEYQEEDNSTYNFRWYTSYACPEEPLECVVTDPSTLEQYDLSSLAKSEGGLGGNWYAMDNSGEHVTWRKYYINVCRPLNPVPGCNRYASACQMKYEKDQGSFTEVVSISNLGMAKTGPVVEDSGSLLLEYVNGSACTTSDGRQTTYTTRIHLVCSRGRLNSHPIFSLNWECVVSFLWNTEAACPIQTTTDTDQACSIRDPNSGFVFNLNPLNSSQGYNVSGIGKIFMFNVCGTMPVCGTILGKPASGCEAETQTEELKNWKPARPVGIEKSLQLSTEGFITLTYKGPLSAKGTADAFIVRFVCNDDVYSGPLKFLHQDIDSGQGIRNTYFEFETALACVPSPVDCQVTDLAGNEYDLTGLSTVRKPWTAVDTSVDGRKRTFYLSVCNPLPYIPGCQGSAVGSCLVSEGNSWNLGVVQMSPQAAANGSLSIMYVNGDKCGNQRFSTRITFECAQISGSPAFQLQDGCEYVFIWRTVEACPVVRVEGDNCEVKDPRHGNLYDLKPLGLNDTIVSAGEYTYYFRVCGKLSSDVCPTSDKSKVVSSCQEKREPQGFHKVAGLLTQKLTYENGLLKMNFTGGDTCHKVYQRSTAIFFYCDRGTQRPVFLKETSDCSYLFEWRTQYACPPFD

Jurkat cells [2] = assay: Uptake of IgE-Alexa488 target protein in Jurkat cells; type: cell-based
Description: The omalizumab conjugates of Example 142 were bound to IgE-Alexa488 (prepared according to Example 144), as follows: equal molar ratios of omalizumab (anti-IgE) conjugate and IgE-Alexa488 were added in tissue culture media for 30 minutes at room temperature. The resulting anti-IgE conjugate:IgE antibody-Alexa488 compositions were added to Jurkat cells (100 k cells/50 ul per well, n=2), and Alexa488 fluorescence levels in the cells were measured at 1 hour by flow cytometry. As the fluorescently labelled target (IgE antibody) accumulates in cells, the fluorescence presents a way to measure total intracellular uptake by cells over time.

CI-M6PR [3] = molecular target: T1, CI-M6PR; assay: CI-M6PR SPR binding assay; conditions: omalizumab conjugates at DAR of about 4; relative to 529 and 552
Description: The CI-M6PR binding affinities of omalizumab (anti-IgE) conjugates of Table 19 were also assessed via SPR binding assay. […] At equivalent DAR (m) values, the koff rate of the omalizumab (anti-IgE) conjugates was 552>529>570.
Target sequence in this assay (P11717 41-2491): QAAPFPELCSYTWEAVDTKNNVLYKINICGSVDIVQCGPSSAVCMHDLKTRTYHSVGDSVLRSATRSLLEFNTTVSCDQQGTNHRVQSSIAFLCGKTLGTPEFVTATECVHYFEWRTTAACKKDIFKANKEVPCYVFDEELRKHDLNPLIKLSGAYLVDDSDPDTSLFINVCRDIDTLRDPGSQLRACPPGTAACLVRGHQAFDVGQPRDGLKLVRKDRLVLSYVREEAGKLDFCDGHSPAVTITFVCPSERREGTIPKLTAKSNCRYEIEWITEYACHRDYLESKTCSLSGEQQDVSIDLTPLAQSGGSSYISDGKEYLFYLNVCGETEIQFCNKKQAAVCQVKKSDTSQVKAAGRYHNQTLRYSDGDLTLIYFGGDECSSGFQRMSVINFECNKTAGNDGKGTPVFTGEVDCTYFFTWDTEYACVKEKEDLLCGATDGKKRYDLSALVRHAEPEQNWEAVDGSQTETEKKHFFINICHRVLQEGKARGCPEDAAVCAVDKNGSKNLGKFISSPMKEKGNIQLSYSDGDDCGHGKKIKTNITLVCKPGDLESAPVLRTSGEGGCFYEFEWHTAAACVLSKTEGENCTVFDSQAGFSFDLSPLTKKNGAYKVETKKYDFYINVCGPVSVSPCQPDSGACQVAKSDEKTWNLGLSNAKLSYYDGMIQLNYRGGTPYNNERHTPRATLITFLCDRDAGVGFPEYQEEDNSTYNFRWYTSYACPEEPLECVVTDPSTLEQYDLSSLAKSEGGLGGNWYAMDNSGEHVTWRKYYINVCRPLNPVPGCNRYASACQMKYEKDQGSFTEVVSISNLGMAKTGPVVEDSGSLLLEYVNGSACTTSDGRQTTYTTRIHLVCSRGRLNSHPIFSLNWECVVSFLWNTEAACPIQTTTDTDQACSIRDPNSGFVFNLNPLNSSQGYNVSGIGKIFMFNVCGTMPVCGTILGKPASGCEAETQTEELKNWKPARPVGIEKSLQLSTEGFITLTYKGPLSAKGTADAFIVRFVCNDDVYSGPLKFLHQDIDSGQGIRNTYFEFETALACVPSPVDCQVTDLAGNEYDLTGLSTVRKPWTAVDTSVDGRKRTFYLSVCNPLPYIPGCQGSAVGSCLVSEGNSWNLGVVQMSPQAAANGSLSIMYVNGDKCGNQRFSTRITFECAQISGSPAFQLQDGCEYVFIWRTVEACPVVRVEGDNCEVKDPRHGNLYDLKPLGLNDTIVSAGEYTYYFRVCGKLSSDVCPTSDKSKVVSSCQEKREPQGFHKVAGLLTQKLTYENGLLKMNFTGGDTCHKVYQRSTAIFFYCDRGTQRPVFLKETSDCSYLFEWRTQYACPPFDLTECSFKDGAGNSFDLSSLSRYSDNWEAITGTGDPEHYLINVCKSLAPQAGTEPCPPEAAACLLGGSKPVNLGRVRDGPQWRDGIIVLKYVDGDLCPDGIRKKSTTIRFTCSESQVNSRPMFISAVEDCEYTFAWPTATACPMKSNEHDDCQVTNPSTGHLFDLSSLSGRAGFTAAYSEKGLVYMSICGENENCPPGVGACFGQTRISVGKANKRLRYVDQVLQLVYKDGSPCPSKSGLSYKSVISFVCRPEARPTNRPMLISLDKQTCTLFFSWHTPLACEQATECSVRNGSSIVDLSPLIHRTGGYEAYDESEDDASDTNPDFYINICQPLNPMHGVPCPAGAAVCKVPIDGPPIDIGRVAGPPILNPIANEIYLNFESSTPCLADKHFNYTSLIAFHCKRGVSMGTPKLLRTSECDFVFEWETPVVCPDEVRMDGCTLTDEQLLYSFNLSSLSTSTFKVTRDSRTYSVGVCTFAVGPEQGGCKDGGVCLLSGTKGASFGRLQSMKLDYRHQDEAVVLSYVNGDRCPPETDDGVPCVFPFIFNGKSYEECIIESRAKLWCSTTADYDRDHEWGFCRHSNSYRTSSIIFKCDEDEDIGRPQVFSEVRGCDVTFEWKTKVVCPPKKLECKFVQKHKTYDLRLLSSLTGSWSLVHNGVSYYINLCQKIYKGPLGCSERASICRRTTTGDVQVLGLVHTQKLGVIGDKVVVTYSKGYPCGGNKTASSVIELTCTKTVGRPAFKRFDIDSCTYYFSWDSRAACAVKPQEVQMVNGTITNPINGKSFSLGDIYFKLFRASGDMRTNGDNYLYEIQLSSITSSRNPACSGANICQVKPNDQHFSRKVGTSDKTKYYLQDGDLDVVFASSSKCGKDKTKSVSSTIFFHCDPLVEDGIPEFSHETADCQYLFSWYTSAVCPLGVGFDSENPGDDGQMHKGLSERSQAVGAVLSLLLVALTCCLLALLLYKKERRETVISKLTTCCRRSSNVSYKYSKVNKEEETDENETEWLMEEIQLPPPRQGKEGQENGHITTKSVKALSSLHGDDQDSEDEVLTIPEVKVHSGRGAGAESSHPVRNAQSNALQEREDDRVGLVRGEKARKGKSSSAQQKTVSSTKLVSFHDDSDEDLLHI

[4] = Serum pharmacokinetic analysis of rIgG1 (anti-IgG2a) antibody conjugates; type: in vivo, mice; conditions: intravenous 10 μg/mouse, compared to Compound I-7
Description: A pharmacokinetic analysis of the rIgG1 (anti-IgG2a) antibody conjugates described in the previous example was performed in mice. In particular, […] mice were intravenously administered each rIgG1 antibody conjugate at 10 μg/mouse (5 mice per group). Blood was collected at 0.5, 1, 2, 6, and 24 hours and serum rIgG1 was analyzed using an ELISA kit (Abcam) according to the manufacturer's instructions. Samples were run across 3 different plates with unconjugated rIgG1 controls (UNLB-anti-IgG2a rIgG1) included on all 3 plates. FIGS. 8A-8C show the serum levels of anti-IgG2a conjugated to Compound 1-7 (dar8) and (dar4) (FIG. 8A), anti-IgG2a conjugated to Compound I-10 and anti-IgG2a conjugated to Compound I-11 (FIG. 8B), and anti-IgG2a conjugated to Compound I-9 and anti-IgG2a conjugated to Compound I-12 (FIG. 8C) over time.

Jurkat cells [5] = assay: Uptake of IgG2a-Alexa488 into Jurkat cells; type: cell-based; conditions: anti-IgG2a conjugates, 1 hour and 24 hours
Description: The anti-IgG2a conjugates were bound to IgG2a-Alexa488, as follows: equal molar ratios of anti-IgG2a and IgG2a-Alexa488 were added in tissue culture media for 30 minutes at room temperature. The resulting anti-IgG2a:IgG2a antibody-Alexa488 compositions were added to Jurkat cells (100 k cells/50 ul per well, n=2), and Alexa488 fluorescence levels were measured (via Alexa488 measurement) at 1 hour and 24 hours by flow cytometry. As the fluorescently labelled target (IgG2a antibody) accumulates in cells, the fluorescence presents a way to measure total intracellular uptake by cells over time.

M6PR (Domains 1-9) = molecular target: T2, M6PR (Domains 1-9) (Homo sapiens, UniProt P11717); assay: General M6PR binding assay (fluorescence polarization); conditions: 100 nM M6PR, 1 nM probe, 2 hr incubation
T2 construct: with 100 nM M6PR (Domains 1-9, R&D Systems) and 1 nM probe; purchased R&D Systems
T2 sequence (P11717 41-1365 limits assumed): as the sequence (P11717 41-1365 limits assumed) above
Description: M6PR binding was measured in black 96-well plates using a fluorescence polarization assay. A fluorescent probe consisting of a reference M6Pn ligand linked to Cy5 was synthesized. Test compounds were resuspended in DMSO and 3-fold serial dilutions were made at 100× final concentrations. Binding reactions were conducted in 100 μl final volume in 20 mM HEPES (pH 7.5) 100 mM NaCl 0.015% o Tween-20 1% DMSO with 100 nM M6PR (Domains 1-9, R&D Systems) and 1 nM probe. Fluorescence polarization was measured using λex=620 nm, λem=688 nm on an Envision plate reader (Perkin Elmer) after 2 hr incubation time. Dose responses were conducted in duplicate and normalized to the response with DMSO (high) and 1 μM reference compound (low) on each plate. IC50 values were determined by fitting to 4-parameter curves in GraphPad Prism.

[6] = omalizumab conjugates of Table 15B, Jurkat cells, 1 hour (FIG. 18-21)
[7] = omalizumab conjugates of Table 19, Jurkat cells (FIG. 23)
[8] = omalizumab conjugates of Table 15A, Jurkat cells, 1 hour (FIG. 15-17)

## O=C(CCOCCOCCOCCOCCn1cc(CCCCNC(=S)Nc2ccc(O[C@H]3O[C@H](CCP(=O)(O)O)[C@@H](O)[C@H](O)[C@@H]3O)cc2)nn1)Oc1c(F)c(F)c(F)c(F)c1F [520 (I-7)]
CI-M6PR [1]
  binding affinity to M6PR, rank among the conjugates tested: highest

## O=C(CCOCCn1cc(CCO[C@H]2O[C@H](CCP(=O)(O)O)[C@@H](O)[C@H](O)[C@@H]2O)nn1)Oc1c(F)c(F)c(F)c(F)c1F [605 (I-11)]
CI-M6PR [1]
  binding affinity to M6PR, rank among the conjugates tested: lowest binding affinity

## O=C(NCCCCc1cn(CCOCCOCCOCCOCCC(=O)Oc2c(F)c(F)c(F)c(F)c2F)nn1)Nc1ccc(S[C@H]2O[C@H](CCP(=O)(O)O)[C@@H](O)[C@H](O)[C@@H]2O)cc1 [Compound 552]
Jurkat cells [2]; [6]
  cellular uptake activity of Alexa488 labeled-target IgE: comparable activity; also recorded: more activity when at m=6 loading versus m=4 loading
Jurkat cells [2]; [7]
  cellular uptake activity of Alexa488 labeled-target IgE: comparable by less activity

## O=C(NCCCCc1cn(CCOCCOCCOCCOCCC(=O)Oc2c(F)c(F)cc(F)c2F)nn1)Nc1ccc(O[C@H]2O[C@H](CCP(=O)(O)O)[C@@H](O)[C@H](O)[C@@H]2O)cc1 [Compound 558]
Jurkat cells [2]; [8]
  cellular uptake activity of Alexa488 labeled-target IgE: active in this assay, although less active

## O=C(NCCCCc1cn(CCOCCOCCOCCOCCC(=O)Oc2c(F)c(F)c(F)c(F)c2F)nn1)Nc1ccc(S[C@@H]2O[C@H](CCP(=O)(O)O)[C@@H](O)[C@H](O)[C@@H]2O)cc1 [Compound 570]
Jurkat cells [2]; [6]
  cellular uptake activity of Alexa488 labeled-target IgE: superior activity
Jurkat cells [2]; [7]
  cellular uptake activity of Alexa488 labeled-target IgE: superior activity
CI-M6PR [3]
  Kd: superior Kd

## CO[C@H]1O[C@H](COCCCCCc2cn(CCOCCOCCOCCOCCC(=O)Oc3c(F)c(F)c(F)c(F)c3F)nn2)[C@@H](O)[C@H](O)[C@@H]1O[C@H]1O[C@H](CCP(=O)(O)O)[C@@H](O)[C@H](O)[C@@H]1O [Compound 659]
Jurkat cells [2]; [6]
  cellular uptake activity of Alexa488 labeled-target IgE: potent and comparable activity

## CO[C@H]1C[C@H](c2cn(CCOCCOCCOCCOCCOCCOCCC(=O)Oc3c(F)c(F)c(F)c(F)c3F)nn2)[C@@H](O)[C@H](O)[C@@H]1O[C@H]1O[C@H](CCP(=O)(O)O)[C@@H](O)[C@H](O)[C@@H]1O [Compound 660]
Jurkat cells [2]; [6]
  cellular uptake activity of Alexa488 labeled-target IgE: potent and comparable activity

## O=C(NCCCCc1cn(CCOCCOCCOCCOCCC(=O)Oc2c(F)c(F)c(F)c(F)c2F)nn1)Nc1ccc(O[C@H]2C[C@H](CCP(=O)(O)O)[C@@H](O)[C@H](O)[C@@H]2O)cc1 [Compound 665]
Jurkat cells [2]; [8]
  cellular uptake activity of Alexa488 labeled-target IgE: low activity

## O=C(CCOCCOCCOCCN(CCOCCOCCOCCn1cc(CCO[C@H]2O[C@H](CCP(=O)(O)O)[C@@H](O)[C@H](O)[C@@H]2O)nn1)CCOCCOCCOCCn1cc(CCO[C@H]2O[C@H](CCP(=O)(O)O)[C@@H](O)[C@H](O)[C@@H]2O)nn1)Oc1c(F)c(F)c(F)c(F)c1F [Compound 716]
Jurkat cells [2]; [8]
  cellular uptake activity of Alexa488 labeled-target IgE: inferior uptake

## O=C(CCOCCn1cc(CCO[C@H]2O[C@H](CCP(=O)(O)O)[C@@H](O)[C@H](O)[C@@H]2O)nn1)Oc1c(F)c(F)c(F)c(F)c1F [Compound I-11]
[4]
  half-life in mice: longer half-life
Jurkat cells [5]
  intracellular uptake of IgG2a-Alexa488: sufficiently robust uptake
CI-M6PR [1]; conjugates of ligand linkers
  binding affinity to M6PR compared to Compound I-7: weaker binding affinity

## O=C(NCCCCc1cn(-c2cccnc2)nn1)Nc1ccc(O[C@@H]2O[C@H](CCP(=O)(O)O)[C@@H](O)[C@H](O)[C@@H]2O)cc1 [Compound P1]
M6PR (Domains 1-9)
  IC50: 100 to 500 nM

## O=C(NCCCCc1cn(-c2cccnc2)nn1)Nc1ccc(O[C@H]2O[C@H](CCP(=O)(O)O)[C@@H](O)[C@H](O)[C@@H]2O)cc1 [Compound P2]
M6PR (Domains 1-9)
  IC50: 100 to 500 nM

## O=C(NCCCCc1cn(-c2cccnc2)nn1)Nc1ccc(S[C@@H]2O[C@H](CCP(=O)(O)O)[C@@H](O)[C@H](O)[C@@H]2O)cc1 [Compound P3]
M6PR (Domains 1-9)
  IC50: 100 to 500 nM

## O=C(NCCCCc1cn(-c2cccnc2)nn1)Nc1ccc(S[C@H]2O[C@H](CCP(=O)(O)O)[C@@H](O)[C@H](O)[C@@H]2O)cc1 [Compound P4]
M6PR (Domains 1-9)
  IC50: 100 to 500 nM
